Laboratory results as given in US11266578B2, “Composition, kit and method for coloring keratinous fibers” (Henkel AG & Co. KGaA, priority 2017, dated 2022).

experiment: Water-solubility at 1 wt. % in distilled water; assay type: physicochemical; conditions: 1 wt. % in ~pH7 distilled water at RT; clear = soluble, turbid = insoluble
Experimental: Water-solubility of a chemical compound, and, for instance, water insolubility of condensation-curable amino-silicone pre-polymers, can be provided by the supplier. It can also be confirmed or determined as follows. Water-solubility was assessed by mixing 1 wt. % of the material in near neutral (˜pH7) distilled water at RT, followed by a brief vortex for homogeneity. A clear solution indicated a water-soluble material, whereas turbidity indicated an at least partly water-insoluble material.

Structure (SMILES)	water-solubility
CCO[Si](C)(C)CCCN [3-aminopropyldimethylethoxysilane]	water soluble
CCO[Si](CCCN)(OCC)OCC [Dynasylan® AMEO, 3-aminopropyltriethoxysilane]	soluble
C[Si](C)(CCCN)O[Si](C)(C)CCCN [GP-967, Bis 3-aminopropyl tetramethyldisiloxane]	turbid dispersion
CCO[Si](CCCNCCN)(OCC)OCC [N-(2-aminoethyl)-3-aminopropyltriethoxysilane]	water soluble
CCO[Si](CCCNCCC[Si](OCC)(OCC)OCC)(OCC)OCC [SIB1824.5, bis(triethoxy-silylpropyl) amine]	insoluble
CCO[Si](CCCN1CCC[Si]1(OCC)OCC)(OCC)OCC [SIT8187.2, 1-(3-(triethoxysilyl)propyl)-2,2-diethoxi-1-aza-2-silacyclopentane]	insoluble

same assay, conditions: Table 17

Structure (SMILES)	solubility (in Material Type)
CCO[Si](C)(CCCN)OCC [3-Aminopropylmethyl-diethoxysilane]	silane (soluble)
CCO[Si](C)(CCCNCCC[Si](C)(OCC)OCC)OCC [Bis[methyldiethoxysilyl-propyl] amine]	silane (non soluble)
C[Si]1(C)O[Si](C)(C)O[Si](C)(C)O[Si](C)(C)O[Si](C)(C)O1 [Decamethylcyclopenta-siloxane, Decamethylcyclopentasiloxane]	(soluble)
CCO[Si](CCCNCCN)(OCC)OCC [N-(2-aminoethyl)-3-aminopropyltriethoxysilane]	silane (soluble)
